Key:
[1] = target: T1, LlFpg WT (Lactococcus lactis) (UniProt P42371); test: EMSA; conditions: apparent Kd, N at position 7 of strand 1 = tetrahydrofuran (THF) abasic site analogue, opposite C, EMSA: 0.1 nM 32P-labelled 14-mer THF-DNA, 0-16 nM LlFpg (2 nM in 2TX assays), 20 min at 4 C / on ice, with or without 8% DMSO, buffer and pH as in cited …
T1 sequence: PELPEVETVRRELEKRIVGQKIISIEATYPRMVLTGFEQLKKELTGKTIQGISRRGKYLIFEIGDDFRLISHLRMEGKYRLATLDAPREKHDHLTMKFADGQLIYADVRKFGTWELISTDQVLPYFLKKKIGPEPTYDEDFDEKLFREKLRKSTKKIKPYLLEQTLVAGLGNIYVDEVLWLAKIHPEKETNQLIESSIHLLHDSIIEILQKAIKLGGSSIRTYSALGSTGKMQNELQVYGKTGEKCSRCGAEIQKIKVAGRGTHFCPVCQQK

EcNei [2] = target: T2, EcNei (Escherichia coli, UniProt P50465); test: Hyd-DNA glycosylase assay, […]-labelled 24-mer, Urea-PAGE; type: biochemical; conditions: Hyd:G double-stranded DNA, 30 min, 37°C, 8% DMSO
T2 construct: gene nei; full-length, C-terminal 6His-tag, pET22b derivative, expressed in E. coli BL21(DE3)
T2 sequence (P50465 2-263): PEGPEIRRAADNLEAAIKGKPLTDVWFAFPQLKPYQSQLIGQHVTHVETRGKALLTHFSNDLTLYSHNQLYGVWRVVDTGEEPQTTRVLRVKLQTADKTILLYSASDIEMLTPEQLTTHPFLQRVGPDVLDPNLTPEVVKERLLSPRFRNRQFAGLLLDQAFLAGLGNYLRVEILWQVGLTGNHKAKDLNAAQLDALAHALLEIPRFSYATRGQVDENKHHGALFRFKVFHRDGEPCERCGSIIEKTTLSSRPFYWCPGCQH

hNEIL2 [3] = target: T3, hNEIL2 (Homo sapiens, UniProt Q969S2); test: PAR assay, 2TX-induced Zn2+ release, A500; type: binding; conditions: free enzyme without DNA; 5 μM enzyme, 10 mM 2TX, 100 μM PAR, 25 mM Hepes/KOH pH 7.5, 70 mM KCl, 8% DMSO, room temperature; covalent
T3 construct: gene NEIL2; 6His-hNEIL2 fusion, vector pPR363, expressed in E. coli BL21CodonsPlus; CHC2-type zinc finger
T3 sequence (Q969S2 1-332): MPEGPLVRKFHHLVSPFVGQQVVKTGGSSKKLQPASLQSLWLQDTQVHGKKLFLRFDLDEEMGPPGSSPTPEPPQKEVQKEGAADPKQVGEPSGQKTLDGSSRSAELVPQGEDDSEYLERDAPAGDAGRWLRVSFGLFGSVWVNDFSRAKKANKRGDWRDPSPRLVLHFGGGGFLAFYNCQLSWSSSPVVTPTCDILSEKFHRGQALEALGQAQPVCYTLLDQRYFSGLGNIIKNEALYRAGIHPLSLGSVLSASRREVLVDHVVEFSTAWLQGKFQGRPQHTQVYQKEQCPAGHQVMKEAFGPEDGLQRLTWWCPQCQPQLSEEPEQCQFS
From the text: PAR assay, 2TX-induced Zn2+ release, A500 on hNEIL2

LlFpg [4] = target: T4, LlFpg (Lactococcus cremoris, UniProt P42371); test: PAR assay, 2TX-induced Zn2+ release, A500; type: binding; conditions: free enzyme without DNA; 5 μM enzyme, 10 mM 2TX, 100 μM PAR, 25 mM Hepes/KOH pH 7.5, 70 mM KCl, 8% DMSO, room temperature; covalent
T4 construct: gene mutM; full-length recombinant from pFlag-CTC-WT-LlFpg, E. coli BH540 (fpg mutY) host, purified to homogeneity; zinc finger C245/C248/C265/C268
T4 sequence (P42371 2-273): T1 sequence
From the text: PAR assay, 2TX-induced Zn2+ release, A500 on LlFpg

hNEIL2 [5] = target: T3, hNEIL2; test: Hyd-DNA glycosylase assay, […]-labelled 24-mer, Urea-PAGE; type: biochemical; conditions: Hyd single-stranded DNA, 30 min, 37°C, 8% DMSO
LlFpg [6] = target: T4, LlFpg; test: 8-oxoG-DNA glycosylase assay, […]-labelled 24-mer, gel; type: biochemical; conditions: 5 nM enzyme, 25 nM 8-oxoG-DNA, 0-250 μM 2TX, 30 min, 37°C, 8% DMSO
LlFpg [7] = target: T4, LlFpg; test: X-ray crystal structures of LlFpg/DNA treated with 2TX ([…] Å THF-DNA; […] Å Bz-cFapyG-DNA); type: binding; conditions: covalent disulfide to C248 (THF-DNA) or C268 (Bz-cFapyG-DNA); stacks on W179; outside active site; zinc lost
EcNei [8] = target: T2, EcNei; test: PAR assay, 2TX-induced Zn2+ release, A500; type: binding; conditions: free enzyme without DNA; 5 μM enzyme, 10 mM 2TX, 100 μM PAR, 25 mM Hepes/KOH pH 7.5, 70 mM KCl, 8% DMSO, room temperature; covalent
From the text: PAR assay, 2TX-induced Zn2+ release, A500 on EcNei

Row | Compound | Kd ([1]; 8% DMSO) [nM] | Kd ([1]; without DMSO) [nM] | Hyd-DNA glycosylase assay, 32P-labelled 24-mer, Urea-PAGE (EcNei [2]) | kobs (min^-1)^a / - DNA (hNEIL2 [3]) [min⁻¹] | kobs (min^-1)^a / - DNA (LlFpg [4]) [min⁻¹] | Hyd-DNA glycosylase assay, 32P-labelled 24-mer, Urea-PAGE (hNEIL2 [5]) | 8-oxoG-DNA glycosylase assay, 32P-labelled 24-mer, gel (LlFpg [6]) | X-ray crystal structures of LlFpg/DNA treated with 2TX (2.4 Å THF-DNA); 2.1 Å Bz- (LlFpg [7]) | kobs (min^-1)^a / - DNA (EcNei [8]) [min⁻¹]
1 | CTCTTTNTTTCTCG / GCGAGAAACAAAGA [14-mer THF-DNA] | 3 | 10 | – | – | – | – | – | – | –
2 | O=c1[nH]c(=S)[nH]c2nc[nH]c12 [2TX, 2-thioxanthine] | – | – | The Hyd-DNA glycosylase activity of EcNei and hNEIL2 were also strongly inhibited by 2TX | 0.180 ± 0.002 | 0.073 ± 0.001 | The Hyd-DNA glycosylase activity of EcNei and hNEIL2 were also strongly inhibited by 2TX | excision of 8-oxoG from 24-mer DNA duplex (Supplementary Figure S2) by LlFpg was inhibited | a 2TX molecule covalently bound to C268 was easily modeled in the electron density map | 0.296 ± 0.001

From PMC4176347, “Zinc finger oxidation of Fpg/Nei DNA glycosylases by 2-thioxanthine: biochemical and X-ray structural characterization” (Nucleic Acids Research, 2014)
